pIC50: −log10 of the molar value.
Key:
Assay in all cases: Protease Inhibition Assay
[1] = target: T1, Dimer of Gag-Pol polyprotein [489-587,Q496K,L499I,N526S,R530K,M535I,I543V,I551V,L552P,A560V,V566I,V571A,L579M,I582L] (Human immunodeficiency virus 1, UniProt P12497, A560V/I543V/I551V/I582L/L499I/L552P/L579M/M535I/N526S/Q496K/R530K/V566I/V571A)
T1 construct: 489-587
Description: (§1) Assay of HIV protease inhibition was performed by peptide cleavage using the substrate Val-Ser-Gln-Asn-beta-naphthylalanine*Pro-Ile-Val. Products of the cleavage reaction were quantified by HPLC detection, and data were fit to nonlinear least squares equations for determination of steady-state Michaelis-Menten kinetics.

[2] = target: T2, Dimer of Gag-Pol polyprotein [489-587,Q496K,L499I,M535I,I543V,Q547E,L552P,I553V,V566I,V571F,I573V,L579M,I582L] (Human immunodeficiency virus 1, UniProt P12497, I543V/I553V/I573V/I582L/L499I/L552P/L579M/M535I/Q496K/Q547E/V566I/V571F)
T2 construct: 489-587
Description: as §1

[3] = target: T3, Dimer of Gag-Pol polyprotein [489-587,Q496K,L499I,M525I,N526D,M535I,R546K,L552P,A560V,G562S,I573V,L579M,I582L] (Human immunodeficiency virus 1, UniProt P12497, A560V/G562S/I573V/I582L/L499I/L552P/L579M/M525I/M535I/N526D/Q496K/R546K)
T3 construct: 489-587
Description: as §1

[4] = target: T4, Dimer of Gag-Pol polyprotein [489-587,Q496K] (Human immunodeficiency virus 1, UniProt P12497, Q496K); settings: pH 5.5; 30 °C
T4 construct: 489-587
Description: as §1

Row | Structure (SMILES) | pIC50 [1] | pIC50 [2] | pIC50 [3] | pIC50 [4]
1 | O=C(N[C@H]1c2ccccc2OC[C@H]1O)[C@H](Cc1cccnc1)C[C@H](O)CN1CCN(Cc2cc3ccsc3s2)C[C@H]1C(=O)NCC(F)(F)F [(2S)-1-[(2S,4R)-2-hydroxy-4-{[(3S,4S)-3-hydroxy-3,4-dihydro-2H-1-benzopyran-4-yl]carbamoyl}-4-(pyridin-3-ylmethyl)butyl]-4-{thieno[2,3-b]thiophen-2-ylmethyl}-N-(2,2,2-trifluoroethyl)piperazine-2-carboxamide] | 8.49 | 8.30 | 9.37 | 10.52
2 | O=C(N[C@H]1c2ccccc2OC[C@H]1O)[C@H](Cc1ccncc1)C[C@H](O)CN1CCN(Cc2cc3ccsc3s2)C[C@H]1C(=O)NCC(F)(F)F [(2S)-1-[(2S,4R)-2-hydroxy-4-{[(3S,4S)-3-hydroxy-3,4-dihydro-2H-1-benzopyran-4-yl]carbamoyl}-4-(pyridin-4-ylmethyl)butyl]-4-{thieno[2,3-b]thiophen-2-ylmethyl}-N-(2,2,2-trifluoroethyl)piperazine-2-carboxamide] | 8.32 | 7.70 | 8.92 | 10.15

— BindingDB's records for doi:10.1016/s0960-894x(03)00680-2 (Merck Research Laboratories, 2003)
